From the NIST ThermoML archive (doi:10.1021/je800517r)
Where “and” joins values, the source holds several entries; their conditions need not be identical. Identical values can stand only once. ± gives the expanded uncertainty stated by the source.

Assay: activity coefficient (dimensionless); of the first substance listed, at infinite dilution; xn = mol fraction of the nth substance listed
Conditions: Liquid, comparative ebulliometry, circulation still, and differential distillation method, x1 = 0

What does the source list for `CC(=O)N(C)C` [N,N-dimethylethanamide] + O?
activity coefficient (343.15 K): 1.27 ± 0.08; activity coefficient (343.51 K): 1.29 ± 0.08; activity coefficient (349.03 K): 1.46 ± 0.09; activity coefficient (351.15 K): 1.37 ± 0.08; activity coefficient (353.5 K): 1.72 and 1.79; activity coefficient (363.87 K): 2.06 and 2.24; activity coefficient (370.86 K): 2.12 ± 0.13; activity coefficient (372.28 K): 2.05 ± 0.12

Which activity coefficient (333.15 K) does the source give for `CNC=O` [N-methylformamide] + O here?
The activity coefficient was 1.37 ± 0.08.

What about the activity coefficient (343.15 K) of the same compound?
The activity coefficient was 1.42 ± 0.09.

And the activity coefficient (353.15 K)?
Its activity coefficient is 1.44 ± 0.09.

What about the activity coefficient (372.65 K) of the same compound?
Its activity coefficient is 1.65 ± 0.1.

For `CN(C)C=O` [dimethylformamide] + O, which activity coefficient (343.73 K) is on record?
Its activity coefficient is 1.23 ± 0.07.

And the activity coefficient (349.05 K)?
The activity coefficient was 1.27 ± 0.08.

And the activity coefficient (353.45 K)?
Its activity coefficient is 1.3 ± 0.08.

And the activity coefficient (357.91 K)?
Its activity coefficient is 1.3 ± 0.08.

And the activity coefficient (358.5 K)?
The activity coefficient was 1.36 ± 0.08.

And the activity coefficient (363.82 K)?
The activity coefficient was 1.35 ± 0.08.

And the activity coefficient (368.38 K)?
Its activity coefficient is 1.59 ± 0.1.

What about the activity coefficient (371.62 K) of the same compound?
The activity coefficient was 1.54 ± 0.09.

And the activity coefficient (372 K)?
Its activity coefficient is 1.66 ± 0.1.

Which activity coefficient (333.15 K) does the source give for `CNC(C)=O` [N-methylacetamide] + O here?
Its activity coefficient is 1.7 ± 0.1.

What about the activity coefficient (343.15 K) of the same compound?
Its activity coefficient is 1.78 ± 0.11.

And the activity coefficient (353.15 K)?
Its activity coefficient is 1.82 ± 0.11.
